Our source for the EC50 values is US9505762B2, “Purine derivatives as CB2 receptor agonists” (Hoffmann-La Roche Inc., priority 2013, dated 2016).

SMILES strings stand for the structures.

The target of assay [1] is human CB1 receptors (Homo sapiens (Human), UniProt P21554). Description: functional cAMP assay, CB1. It counts as cell-based. Particulars: CHO cells expressing human CB1. (Cyclic AMP is a second messenger, typically raised through Gs and lowered through Gi signalling.)
For assay [2], the target named is human CB2 receptors (Homo sapiens (Human), UniProt P34972). Description: functional cAMP assay, CB2. It is filed as cell-based. The conditions noted are these: CHO cells expressing human CB2.
human CB2 receptors, sequence (P34972 whole entry): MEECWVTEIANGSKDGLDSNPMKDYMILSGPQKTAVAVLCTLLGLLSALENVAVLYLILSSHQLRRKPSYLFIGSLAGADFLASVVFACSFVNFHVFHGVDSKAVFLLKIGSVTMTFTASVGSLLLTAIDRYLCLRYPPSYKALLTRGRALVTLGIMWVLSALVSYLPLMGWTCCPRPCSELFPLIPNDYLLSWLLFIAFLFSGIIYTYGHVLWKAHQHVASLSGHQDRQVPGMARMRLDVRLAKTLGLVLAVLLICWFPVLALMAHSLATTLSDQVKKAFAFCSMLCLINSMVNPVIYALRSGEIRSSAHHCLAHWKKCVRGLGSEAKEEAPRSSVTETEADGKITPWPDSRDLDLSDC

human CB1 receptors, sequence (P21554 whole entry): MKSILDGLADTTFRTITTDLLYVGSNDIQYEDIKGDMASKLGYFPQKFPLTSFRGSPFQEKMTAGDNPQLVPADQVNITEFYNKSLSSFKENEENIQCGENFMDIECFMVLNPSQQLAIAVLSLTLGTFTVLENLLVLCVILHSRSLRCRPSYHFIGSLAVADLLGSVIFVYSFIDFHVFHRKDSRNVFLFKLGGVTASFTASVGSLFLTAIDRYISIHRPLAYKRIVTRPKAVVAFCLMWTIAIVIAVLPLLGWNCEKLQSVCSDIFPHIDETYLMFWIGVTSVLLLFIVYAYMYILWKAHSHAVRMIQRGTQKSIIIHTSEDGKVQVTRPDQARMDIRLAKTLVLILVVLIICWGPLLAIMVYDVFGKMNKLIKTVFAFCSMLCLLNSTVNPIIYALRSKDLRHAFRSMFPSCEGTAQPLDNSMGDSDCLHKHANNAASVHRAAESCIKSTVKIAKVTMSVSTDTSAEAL

For the molecule `Cc1nonc1Cn1cnc2c(N3CCC(F)(F)C3)nc(OCC(C)(C)C)nc21` [Example 140, 3-[[6-(3,3-difluoropyrrolidin-1-yl)-2-(2,2-dimethylpropoxy)purin-9-yl]methyl]-4-methyl-1,2,5-oxadiazole], the EC50 in assay [1] is more than 10000 nM; in assay [2], 9.2 nM.

`Cc1noc(Cn2cnc3c(N4CC5(COC5)C4)nc(NC(C)(C)C)nc32)n1` [Example 141, N-tert-butyl-9-[(3-methyl-1,2,4-oxadiazol-5-yl)methyl]-6-(2-oxa-6-azaspiro[3.3]heptan-6-yl)purin-2-amine]: the EC50 in assay [1] is more than 10000 nM; in assay [2] it was 40.9 nM.

Consider `CC(C)(C)Nc1nc(N2CC3(COC3)C2)c2ncn(CCC(F)(F)F)c2n1` [Example 142, N-tert-butyl-6-(2-oxa-6-azaspiro[3.3]heptan-6-yl)-9-(3,3,3-trifluoropropyl)purin-2-amine], for which the EC50 is more than 10000 nM in assay [1] and 681 nM in assay [2].

With `CC(C)(C)COc1nc(N2CC3(COC3)C2)c2ncn(Cc3ccccc3Cl)c2n1` [Example 143, 6-[9-[(2-chlorophenyl)methyl]-2-(2,2-dimethylpropoxy)purin-6-yl]-2-oxa-6-azaspiro[3.3]heptane], the EC50 in assay [1] is more than 10000 nM; in assay [2] it was 268 nM.

With `Cc1nonc1Cn1cnc2c(N3CCC[C@@H]3CO)nc(C(C)(C)C)nc21` [Example 145, [(2R)-1-[2-tert-butyl-9-[(4-methyl-1,2,5-oxadiazol-3-yl)methyl]purin-6-yl]pyrrolidin-2-yl]methanol], the EC50 in assay [1] was more than 10000 nM; in assay [2], 6.1 nM.

As for `CC(C)(C)c1nc(N2CCC[C@@H]2C#N)c2ncn(Cc3nnnn3C3CC3)c2n1` [Example 147, (2R)-1-[2-tert-butyl-9-[(1-cyclopropyltetrazol-5-yl)methyl]purin-6-yl]pyrrolidine-2-carbonitrile], the results for the EC50 in assay [1] and in assay [2] were more than 10000 nM and 176 nM, respectively.

On to `Cc1nonc1Cn1cnc2c(N3CCC[C@@H]3C#N)nc(C(C)(C)C)nc21` [Example 148, (2R)-1-[2-tert-butyl-9-[(4-methyl-1,2,5-oxadiazol-3-yl)methyl]purin-6-yl]pyrrolidine-2-carbonitrile], for which the values for the EC50 in assay [1] and in assay [2] were more than 10000 nM and 15.7 nM, respectively.

On to `Cc1nonc1Cn1cnc2c(N3CC4(COC4)C3)nc(C(C)(C)C)nc21` [Example 149, 6-[2-tert-butyl-9-[(4-methyl-1,2,5-oxadiazol-3-yl)methyl]purin-6-yl]-2-oxa-6-azaspiro[3.3]heptane], for which the results for the EC50 in assay [1] and in assay [2] were more than 10000 nM and 185 nM, respectively.

Regarding `Cc1nonc1Cn1cnc2c(N3CCSC3)nc(C(C)(C)C)nc21` [Example 150, 3-[[2-tert-butyl-6-(1,3-thiazolidin-3-yl)purin-9-yl]methyl]-4-methyl-1,2,5-oxadiazole], the half-maximal effective concentration (EC50) in assay [1] was more than 10000 nM; in assay [2], 10.5 nM.

With `CC(C)(C)COc1nc(N2CCC(F)(F)C2)c2nc[nH]c2n1` [Example 151, 6-(3,3-difluoropyrrolidin-1-yl)-2-(2,2-dimethylpropoxy)-9H-purine], the EC50 in assay [1] was more than 10000 nM; in assay [2], 28.7 nM.

As to `FC1(F)CCN(c2nc(Cl)nc3c2ncn3Cc2ccccc2)C1` [Example 154, 9-benzyl-2-chloro-6-(3,3-difluoropyrrolidin-1-yl)purine], the EC50 was more than 10000 nM in assay [1] and 211 nM in assay [2].

For the molecule `CC(C)n1nnnc1Cn1cnc2c(N3CC[C@H](O)C3)nc(C(C)(C)C)nc21` [Example 155, (3S)-1-[2-tert-butyl-9-[(1-propan-2-yltetrazol-5-yl)methyl]purin-6-yl]pyrrolidin-3-ol], the results for the EC50 in assay [1] and in assay [2] were more than 10000 nM and 82.3 nM, respectively.

Consider `CC(C)(C)c1nc(N2CCC(F)(F)C2)c2ncn(Cc3nnnn3C3CC3)c2n1` [Example 156, 2-tert-butyl-9-[(1-cyclopropyltetrazol-5-yl)methyl]-6-(3,3-difluoropyrrolidin-1-yl)purine], for which the EC50 in assay [1] was more than 10000 nM; in assay [2], 9.1 nM.

Turning to `CC(C)(C)c1nc(N2CCC[C@@H]2CO)c2ncn(Cc3ncccc3Cl)c2n1` [Example 157, [(2R)-1-[2-tert-Butyl-9-[(3-chloropyridin-2-yl)methyl]purin-6-yl]pyrrolidin-2-yl]methanol], the EC50 in assay [1] was more than 10000 nM; in assay [2], 4.3 nM.

For the molecule `CCCn1nnnc1Cn1cnc2c(N3CC[C@H](O)C3)nc(C(C)(C)C)nc21` [Example 158, (3S)-1-[2-tert-butyl-9-[(1-propyltetrazol-5-yl)methyl]purin-6-yl]pyrrolidin-3-ol], the results for the EC50 in assay [1] and in assay [2] were more than 10000 nM and 61.6 nM, respectively.

As for `CC(C)(C)c1nc(N2CC[C@H](O)[C@H]2CO)c2ncn(Cc3ncccc3Cl)c2n1` [Example 159, (2R,3S)-1-[2-tert-butyl-9-[(3-chloropyridin-2-yl)methyl]purin-6-yl]-2-(hydroxymethyl)pyrrolidin-3-ol], the values for the EC50 in assay [1] and in assay [2] were more than 10000 nM and 591 nM, respectively.

In the case of `CC(C)(C)c1nc(N2CCSC2)c2ncn(Cc3ncccc3Cl)c2n1` [Example 161, 3-[2-tert-butyl-9-[(3-chloropyridin-2-yl)methyl]purin-6-yl]-1,3-thiazolidine], the figures for the concentration giving a half-maximal response (EC50) in assay [1] and in assay [2] were more than 10000 nM and 12.6 nM, respectively.

Turning to `CC(C)(C)c1nc(N2CCC[C@@H]2C#N)c2ncn(Cc3ncccc3Cl)c2n1` [Example 163, (2R)-1-[2-tert-Butyl-9-[(3-chloropyridin-2-yl)methyl]purin-6-yl]pyrrolidine-2-carbonitrile], the results for the EC50 in assay [1] and in assay [2] were more than 10000 nM and 6.9 nM, respectively.

With `CC(C)(C)c1nc(N2CC[C@H](O)C2)c2ncn(Cc3nnnn3CC3CC3)c2n1` [Example 164, (3S)-1-[2-tert-butyl-9-[[1-(cyclopropylmethyl)tetrazol-5-yl]methyl]purin-6-yl]pyrrolidin-3-ol], the EC50 in assay [1] was more than 10000 nM; in assay [2] it was 20.7 nM.

On to `CC(C)(C)c1nc(N2CC(O)(C(F)(F)F)C2)c2ncn(Cc3ncccc3Cl)c2n1` [Example 167, 1-[2-tert-butyl-9-[(3-chloropyridin-2-yl)methyl]purin-6-yl]-3-(trifluoromethyl)azetidin-3-ol], for which the figures for the EC50 in assay [1] and in assay [2] were more than 10000 nM and 35 nM, respectively.

Take `CC(C)(C)c1nc(N2CCC3(C2)CC3(F)F)c2ncn(Cc3ncccc3Cl)c2n1` (centres unmarked) [Example 168, 2-tert-butyl-9-[(3-chloropyridin-2-yl)methyl]-6-(2,2-difluoro-5-azaspiro[2.4]heptan-5-yl)purine]: the EC50 was more than 10000 nM in assay [1] and 32.4 nM in assay [2].

Take `CC1(O)CN(c2nc(C(C)(C)C)nc3c2ncn3Cc2ncccc2Cl)C1` [Example 169, 1-[2-tert-butyl-9-[(3-chloropyridin-2-yl)methyl]purin-6-yl]-3-methylazetidin-3-ol]: the EC50 in assay [1] was more than 10000 nM; in assay [2] it was 51.4 nM.

As usually defined, the EC50 is the concentration at which the effect is half-maximal.
